# Data published in US20080051387A1, “TETRAHYDROPYRIDO[3,4-D]PYRIMIDINES AND RELATED ANALOGUES” (priority 2006, published 2008).
# Target: T1, chimeric human H3 receptor (Homo sapiens, UniProt Q9Y5N1)
# T1 construct: rat Galpha-i2 (Gnai2, rat); made in house; host or cells: Sf9 insect cells (baculovirus); P2 membranes
# Assay: Chimeric human H3 receptor screening GTP binding assay (inhibition of histamine-stimulated GTP-gamma35S binding, Example 8)
# Assay type: biochemical
# Details: 1 h; assay of Example 8; symbol "!" in column headed Ki; read-out: percent inhibition of agonist-induced GTP-gammaS binding to H3
# Procedure, shortened: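 Sf9 membranes co-expressing chimeric human H3 receptor and heterotrimeric G-protein (35 μg protein) incubated 60 min at room temperature with 4 μM compound, 1 μM histamine and 125 pM GTP-gamma35S in pH 7.4 buffer with 10 μM GDP. Filter-bound radioactivity, nonspecific (10 μM GTP-gammaS) subtracted, reported as % inhibition of histamine signal.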
# T1 sequence (Q9Y5N1 with tags, fused parts or gaps): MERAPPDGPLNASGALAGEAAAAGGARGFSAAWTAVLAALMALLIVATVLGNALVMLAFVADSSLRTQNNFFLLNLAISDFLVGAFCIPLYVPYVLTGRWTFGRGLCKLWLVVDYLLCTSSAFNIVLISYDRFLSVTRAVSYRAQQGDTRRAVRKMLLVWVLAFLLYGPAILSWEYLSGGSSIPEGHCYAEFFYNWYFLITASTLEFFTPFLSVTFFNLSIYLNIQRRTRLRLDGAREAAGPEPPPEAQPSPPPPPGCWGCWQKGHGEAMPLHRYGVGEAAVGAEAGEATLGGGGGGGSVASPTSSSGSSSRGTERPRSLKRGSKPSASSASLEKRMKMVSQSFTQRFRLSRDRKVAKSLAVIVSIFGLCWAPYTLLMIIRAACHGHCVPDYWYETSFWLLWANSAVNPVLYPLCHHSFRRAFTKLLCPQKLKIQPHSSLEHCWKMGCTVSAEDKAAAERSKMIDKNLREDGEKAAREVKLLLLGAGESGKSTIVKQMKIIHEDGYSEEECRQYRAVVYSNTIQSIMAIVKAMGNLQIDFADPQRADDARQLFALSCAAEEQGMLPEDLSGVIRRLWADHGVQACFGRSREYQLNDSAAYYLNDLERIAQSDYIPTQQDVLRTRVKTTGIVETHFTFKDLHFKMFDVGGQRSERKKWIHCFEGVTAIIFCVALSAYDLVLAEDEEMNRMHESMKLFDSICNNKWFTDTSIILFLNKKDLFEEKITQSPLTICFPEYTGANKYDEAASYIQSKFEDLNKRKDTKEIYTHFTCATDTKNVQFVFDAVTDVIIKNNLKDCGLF
row,Structure (SMILES),inhibition at 4 µM
1,"CCC(=O)N1CCc2cnc(N3CCN(C4CCC4)CC3)nc2CC1 [Compound 184, 2-(4-cyclobutylpiperazin-1-yl)-7-propionyl-6,7,8,9-tetrahydro-5H-pyrimido[4,5-d]azepine]",≥ 90%
2,"CC(=O)c1ccc(N2CCc3cnc(N4CCN(C5CCC5)CC4)nc3CC2)nc1 [Compound 185, 1-{6-[2-(4-cyclobutylpiperazin-1-yl)-5,6,8,9-tetrahydro-7H-pyrimido[4,5-d]azepin-7-yl]pyridin-3-yl}ethanone]",≥ 90%
3,"CNC(=O)c1ccc(N2CCc3cnc(N4CCN(C5CCC5)CC4)nc3CC2)nc1 [Compound 186, 6-[2-(4-cyclobutylpiperazin-1-yl)-5,6,8,9-tetrahydro-7H-pyrimido[4,5-d]azepin-7-yl]-N-methylnicotinamide]",≥ 90%
4,"Cc1cccc(C(=O)N2CCc3cnc(N4CCN(C5CCC5)CC4)nc3CC2)c1 [Compound 187, 2-(4-cyclobutylpiperazin-1-yl)-7-(3-methylbenzoyl)-6,7,8,9-tetrahydro-5H-pyrimido[4,5-d]azepine]",≥ 90%
5,"Cc1ccc(C(=O)N2CCc3cnc(N4CCN(C5CCC5)CC4)nc3CC2)cc1 [Compound 188, 2-(4-cyclobutylpiperazin-1-yl)-7-(4-methylbenzoyl)-6,7,8,9-tetrahydro-5H-pyrimido[4,5-d]azepine]",≥ 90%
6,"Cc1ccccc1C(=O)N1CCc2cnc(N3CCN(C4CCC4)CC3)nc2CC1 [Compound 189, 2-(4-cyclobutylpiperazin-1-yl)-7-(2-methylbenzoyl)-6,7,8,9-tetrahydro-5H-pyrimido[4,5-d]azepine]",≥ 90%
7,"COc1cccc(C(=O)N2CCc3cnc(N4CCN(C5CCC5)CC4)nc3CC2)c1 [Compound 190, 2-(4-cyclobutylpiperazin-1-yl)-7-(3-methoxybenzoyl)-6,7,8,9-tetrahydro-5H-pyrimido[4,5-d]azepine]",≥ 90%
8,"COc1ccc(C(=O)N2CCc3cnc(N4CCN(C5CCC5)CC4)nc3CC2)cc1 [Compound 191, 2-(4-cyclobutylpiperazin-1-yl)-7-(4-methoxybenzoyl)-6,7,8,9-tetrahydro-5H-pyrimido[4,5-d]azepine]",≥ 90%
9,"COc1ccccc1C(=O)N1CCc2cnc(N3CCN(C4CCC4)CC3)nc2CC1 [Compound 192, 2-(4-cyclobutylpiperazin-1-yl)-7-(2-methoxybenzoyl)-6,7,8,9-tetrahydro-5H-pyrimido[4,5-d]azepine]",≥ 90%
10,"O=C(c1cccc(F)c1)N1CCc2cnc(N3CCN(C4CCC4)CC3)nc2CC1 [Compound 193, 2-(4-cyclobutylpiperazin-1-yl)-7-(3-fluorobenzoyl)-6,7,8,9-tetrahydro-5H-pyrimido[4,5-d]azepine]",≥ 90%
11,"O=C(c1ccc(F)cc1)N1CCc2cnc(N3CCN(C4CCC4)CC3)nc2CC1 [Compound 194, 2-(4-cyclobutylpiperazin-1-yl)-7-(4-fluorobenzoyl)-6,7,8,9-tetrahydro-5H-pyrimido[4,5-d]azepine]",≥ 90%
12,"O=C(c1ccccc1F)N1CCc2cnc(N3CCN(C4CCC4)CC3)nc2CC1 [Compound 195, 2-(4-cyclobutylpiperazin-1-yl)-7-(2-fluorobenzoyl)-6,7,8,9-tetrahydro-5H-pyrimido[4,5-d]azepine]",≥ 90%
13,"O=C(c1ccco1)N1CCc2cnc(N3CCN(C4CCC4)CC3)nc2CC1 [Compound 196, 2-(4-cyclobutylpiperazin-1-yl)-7-(2-furoyl)-6,7,8,9-tetrahydro-5H-pyrimido[4,5-d]azepine]",≥ 90%
14,"O=C(c1ccoc1)N1CCc2cnc(N3CCN(C4CCC4)CC3)nc2CC1 [Compound 197, 2-(4-cyclobutylpiperazin-1-yl)-7-(3-furoyl)-6,7,8,9-tetrahydro-5H-pyrimido[4,5-d]azepine]",≥ 90%
15,"O=C(c1cccnc1)N1CCc2cnc(N3CCN(C4CCC4)CC3)nc2CC1 [Compound 198, 2-(4-cyclobutylpiperazin-1-yl)-7-(pyridin-3-ylcarbonyl)-6,7,8,9-tetrahydro-5H-pyrimido[4,5-d]azepine]",≥ 90%
16,"O=C(c1ccccn1)N1CCc2cnc(N3CCN(C4CCC4)CC3)nc2CC1 [Compound 199, 2-(4-cyclobutylpiperazin-1-yl)-7-(pyridin-2-ylcarbonyl)-6,7,8,9-tetrahydro-5H-pyrimido[4,5-d]azepine]",≥ 90%

# Same assay, conditions: symbol ! in Ki; test compound 4 μM, 1 μM histamine; read-out: percent inhibition of agonist-induced GTP-gammaS binding to H3
row,Structure (SMILES),inhibition at 4 µM
1,"CCCCN1CCc2ncnc(N3CCN(C4CCC4)CC3)c2CC1 [Compound 163, 7-butyl-4-(4-cyclobutylpiperazin-1-yl)-6,7,8,9-tetrahydro-5H-pyrimido[4,5-d]azepine]",≥ 90%
2,"CCCCCN1CCc2ncnc(N3CCN(C4CCC4)CC3)c2CC1 [Compound 164, 4-(4-cyclobutylpiperazin-1-yl)-7-pentyl-6,7,8,9-tetrahydro-5H-pyrimido[4,5-d]azepine]",≥ 90%
3,"CCCCCCN1CCc2ncnc(N3CCN(C4CCC4)CC3)c2CC1 [Compound 165, 4-(4-cyclobutylpiperazin-1-yl)-7-hexyl-6,7,8,9-tetrahydro-5H-pyrimido[4,5-d]azepine]",≥ 90%
4,"CC(C)CN1CCc2ncnc(N3CCN(C4CCC4)CC3)c2CC1 [Compound 166, 4-(4-cyclobutylpiperazin-1-yl)-7-isobutyl-6,7,8,9-tetrahydro-5H-pyrimido[4,5-d]azepine]",≥ 90%
5,"CCC(C)CN1CCc2ncnc(N3CCN(C4CCC4)CC3)c2CC1 (stereo not drawn) [Compound 167, 4-(4-cyclobutylpiperazin-1-yl)-7-(2-methylbutyl)-6,7,8,9-tetrahydro-5H-pyrimido[4,5-d]azepine]",≥ 90%
6,"CCC(CC)CN1CCc2ncnc(N3CCN(C4CCC4)CC3)c2CC1 [Compound 168, 4-(4-cyclobutylpiperazin-1-yl)-7-(2-ethylbutyl)-6,7,8,9-tetrahydro-5H-pyrimido[4,5-d]azepine]",≥ 90%
7,"c1nc2c(c(N3CCN(C4CCC4)CC3)n1)CCN(CC1CC1)CC2 [Compound 169, 4-(4-cyclobutylpiperazin-1-yl)-7-(cyclopropylmethyl)-6,7,8,9-tetrahydro-5H-pyrimido[4,5-d]azepine]",≥ 90%
8,"CCCC(C)CN1CCc2ncnc(N3CCN(C4CCC4)CC3)c2CC1 (stereo not drawn) [Compound 170, 4-(4-cyclobutylpiperazin-1-yl)-7-(2-methylpentyl)-6,7,8,9-tetrahydro-5H-pyrimido[4,5-d]azepine]",≥ 90%
9,"c1nc2c(c(N3CCN(C4CCC4)CC3)n1)CCN(CC1CCOC1)CC2 (stereo not drawn) [Compound 171, 4-(4-cyclobutylpiperazin-1-yl)-7-(tetrahydrofuran-3-ylmethyl)-6,7,8,9-tetrahydro-5H-pyrimido[4,5-d]azepine]",≥ 90%
10,"Cc1ccc(CN2CCc3ncnc(N4CCN(C5CCC5)CC4)c3CC2)cc1C [Compound 172, 4-(4-cyclobutylpiperazin-1-yl)-7-(3,4-dimethylbenzyl)-6,7,8,9-tetrahydro-5H-pyrimido[4,5-d]azepine]",≥ 90%
11,"c1nc2c(c(N3CCN(C4CCC4)CC3)n1)CCN(Cc1ccc3c(c1)OCCO3)CC2 [Compound 173, 4-(4-cyclobutylpiperazin-1-yl)-7-(2,3-dihydro-1,4-benzodioxin-6-ylmethyl)-6,7,8,9-tetrahydro-5H-pyrimido[4,5-d]azepine]",≥ 90%
12,"c1ccc2nc(CN3CCc4ncnc(N5CCN(C6CCC6)CC5)c4CC3)ccc2c1 [Compound 174, 4-(4-cyclobutylpiperazin-1-yl)-7-(quinolin-2-ylmethyl)-6,7,8,9-tetrahydro-5H-pyrimido[4,5-d]azepine]",≥ 90%
13,"COc1cccc(CN2CCc3ncnc(N4CCN(C5CCC5)CC4)c3CC2)c1OC [Compound 175, 4-(4-cyclobutylpiperazin-1-yl)-7-(2,3-dimethoxybenzyl)-6,7,8,9-tetrahydro-5H-pyrimido[4,5-d]azepine]",≥ 90%
14,"COc1ccc(OC)c(CN2CCc3ncnc(N4CCN(C5CCC5)CC4)c3CC2)c1 [Compound 176, 4-(4-cyclobutylpiperazin-1-yl)-7-(2,5-dimethoxybenzyl)-6,7,8,9-tetrahydro-5H-pyrimido[4,5-d]azepine]",≥ 90%
15,"CCn1cncc1CN1CCc2ncnc(N3CCN(C4CCC4)CC3)c2CC1 [Compound 177, 4-(4-cyclobutylpiperazin-1-yl)-7-[(1-ethyl-1H-imidazol-5-yl)methyl]-6,7,8,9-tetrahydro-5H-pyrimido[4,5-d]azepine]",≥ 90%
16,"c1nc2c(c(N3CCN(C4CCC4)CC3)n1)CCN(Cc1ccc(N3CCCC3)nc1)CC2 [Compound 178, 4-(4-cyclobutylpiperazin-1-yl)-7-[(6-pyrrolidin-1-ylpyridin-3-yl)methyl]-6,7,8,9-tetrahydro-5H-pyrimido[4,5-d]azepine]",≥ 90%
17,"Cc1c(F)cccc1CN1CCc2ncnc(N3CCN(C4CCC4)CC3)c2CC1 [Compound 179, 4-(4-cyclobutylpiperazin-1-yl)-7-(3-fluoro-2-methylbenzyl)-6,7,8,9-tetrahydro-5H-pyrimido[4,5-d]azepine]",≥ 90%
18,"Clc1ccccc1CN1CCc2ncnc(N3CCN(C4CCC4)CC3)c2CC1 [Compound 180, 7-(2-chlorobenzyl)-4-(4-cyclobutylpiperazin-1-yl)-6,7,8,9-tetrahydro-5H-pyrimido[4,5-d]azepine]",≥ 90%
19,"Clc1ccc(CN2CCc3ncnc(N4CCN(C5CCC5)CC4)c3CC2)c(Cl)c1 [Compound 181, 4-(4-cyclobutylpiperazin-1-yl)-7-(2,4-dichlorobenzyl)-6,7,8,9-tetrahydro-5H-pyrimido[4,5-d]azepine]",≥ 90%
20,"c1nc2c(c(N3CCN(C4CCC4)CC3)n1)CCN(Cc1ccc(N3CCCC3)cc1)CC2 [Compound 182, 4-(4-cyclobutylpiperazin-1-yl)-7-(4-pyrrolidin-1-ylbenzyl)-6,7,8,9-tetrahydro-5H-pyrimido[4,5-d]azepine]",≥ 90%
